From US7498336B2, “Deazaflavin compounds and methods of use thereof” (The United States of America as represented by the …, priority 2003, dated 2009)

Legend:
[1] = test system: Normal human fibroblast MRC-5; experiment: Cell based assay for accumulation of MDM2 and p53 (immunoblot); details: MRC-5 cells, 50 μM, 8 hours
Experimental: Methods: Normal human fibroblast MRC-5 were chosen to determine whether the compounds from the high throughput screening can inhibit the E3 activity of Mdm2, i.e. stabilizing MDM2 and p53 in vivo. After being seeded in 12-well tissue culture cluster overnight, the cells were treated with 50 μM of the compounds for 8 hours. They were harvested with trypsin-EDTA, washed with PBS, and lysed with RIPA buffer. Following removal of insoluble pellet by centrifugation for 20 minutes at 10000 rpm, the lysate was separated on 4-20% gradient SDS-polyacrylamide gel and transferred onto nitrocellulose membrane. The membrane was then blotted with anti-p53 antibody (DO-1), anti-MDM2 antibodies (Ab-1 and Ab-2), anti-p27 (Santa Cruz), anti-Nedd4, and anti-p21Waf1 antibody. After extensive washing with PBS containing 0.5% Triton X-100, it was incubated with HRP-labeled donkey anti-mouse antibody and visualized using enhanced chemiluminescence.

[2] = molecular target: T1, p53 pre-bound to GST-MDM2 (Homo sapiens, UniProt Q00987); experiment: In vitro p53 ubiquitination assay; format: biochemical; details: cellular p53 pre-bound to GST-MDM2, FIG. 2G
T1 construct: made in house; host or cells: GST-MDM2: bacteria; p53: SaOS-p53 inducible cells
T1 sequence (Q00987 whole entry): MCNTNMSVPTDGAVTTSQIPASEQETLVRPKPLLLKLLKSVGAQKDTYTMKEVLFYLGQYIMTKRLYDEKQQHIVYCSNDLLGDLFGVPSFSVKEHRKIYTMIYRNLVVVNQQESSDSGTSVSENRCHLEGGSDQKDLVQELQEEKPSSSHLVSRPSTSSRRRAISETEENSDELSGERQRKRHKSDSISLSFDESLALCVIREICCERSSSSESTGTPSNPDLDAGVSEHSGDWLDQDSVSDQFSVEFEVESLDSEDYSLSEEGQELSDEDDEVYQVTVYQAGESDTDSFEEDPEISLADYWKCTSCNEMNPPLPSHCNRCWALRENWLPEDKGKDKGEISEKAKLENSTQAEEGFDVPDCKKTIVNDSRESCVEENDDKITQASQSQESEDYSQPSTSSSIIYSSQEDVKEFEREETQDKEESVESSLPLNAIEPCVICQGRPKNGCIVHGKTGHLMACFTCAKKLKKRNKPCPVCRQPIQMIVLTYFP
T1 sequence (P04637 whole entry partner): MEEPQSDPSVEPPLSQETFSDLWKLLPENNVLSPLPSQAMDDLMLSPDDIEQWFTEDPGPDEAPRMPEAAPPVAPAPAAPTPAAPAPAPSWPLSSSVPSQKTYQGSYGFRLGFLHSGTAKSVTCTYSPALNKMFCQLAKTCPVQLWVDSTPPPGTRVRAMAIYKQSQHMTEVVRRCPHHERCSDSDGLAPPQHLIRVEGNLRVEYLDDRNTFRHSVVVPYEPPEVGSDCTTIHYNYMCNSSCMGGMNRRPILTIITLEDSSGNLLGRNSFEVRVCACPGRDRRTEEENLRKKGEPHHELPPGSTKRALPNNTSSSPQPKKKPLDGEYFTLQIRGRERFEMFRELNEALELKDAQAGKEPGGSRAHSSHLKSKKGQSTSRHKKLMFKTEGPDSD
Experimental: d. In Vitro R53 Ubiguitination Assay
p53 protein from SaOS-p53 inducible cell lysate was purified from cells using GST-MDM2 (5 pmol) pre-bound to GS beads. Samples were then incubated with test compounds as above. Subsequently 2 μl rabbit E1, 1 μl UbcH5b, and 10 μg of ubiquitin were added. After reaction for 15 min at 23° C., samples were subject to SDS-PAGE under reducing conditions, transferred to nitrocellulose membranes and immunoblotted with anti-p53 (DO-1) followed by ECL using standard techniques.

rabbit E1 = molecular target: T2, rabbit E1 (Oryctolagus cuniculus, UniProt Q29504); experiment: E1 only assay (thiol-ester linkage of ubiquitin with E1); format: biochemical; details: FIG. 2D
T2 construct: purchased Calbiochem 6620700
T2 sequence (Q29504 1-1058): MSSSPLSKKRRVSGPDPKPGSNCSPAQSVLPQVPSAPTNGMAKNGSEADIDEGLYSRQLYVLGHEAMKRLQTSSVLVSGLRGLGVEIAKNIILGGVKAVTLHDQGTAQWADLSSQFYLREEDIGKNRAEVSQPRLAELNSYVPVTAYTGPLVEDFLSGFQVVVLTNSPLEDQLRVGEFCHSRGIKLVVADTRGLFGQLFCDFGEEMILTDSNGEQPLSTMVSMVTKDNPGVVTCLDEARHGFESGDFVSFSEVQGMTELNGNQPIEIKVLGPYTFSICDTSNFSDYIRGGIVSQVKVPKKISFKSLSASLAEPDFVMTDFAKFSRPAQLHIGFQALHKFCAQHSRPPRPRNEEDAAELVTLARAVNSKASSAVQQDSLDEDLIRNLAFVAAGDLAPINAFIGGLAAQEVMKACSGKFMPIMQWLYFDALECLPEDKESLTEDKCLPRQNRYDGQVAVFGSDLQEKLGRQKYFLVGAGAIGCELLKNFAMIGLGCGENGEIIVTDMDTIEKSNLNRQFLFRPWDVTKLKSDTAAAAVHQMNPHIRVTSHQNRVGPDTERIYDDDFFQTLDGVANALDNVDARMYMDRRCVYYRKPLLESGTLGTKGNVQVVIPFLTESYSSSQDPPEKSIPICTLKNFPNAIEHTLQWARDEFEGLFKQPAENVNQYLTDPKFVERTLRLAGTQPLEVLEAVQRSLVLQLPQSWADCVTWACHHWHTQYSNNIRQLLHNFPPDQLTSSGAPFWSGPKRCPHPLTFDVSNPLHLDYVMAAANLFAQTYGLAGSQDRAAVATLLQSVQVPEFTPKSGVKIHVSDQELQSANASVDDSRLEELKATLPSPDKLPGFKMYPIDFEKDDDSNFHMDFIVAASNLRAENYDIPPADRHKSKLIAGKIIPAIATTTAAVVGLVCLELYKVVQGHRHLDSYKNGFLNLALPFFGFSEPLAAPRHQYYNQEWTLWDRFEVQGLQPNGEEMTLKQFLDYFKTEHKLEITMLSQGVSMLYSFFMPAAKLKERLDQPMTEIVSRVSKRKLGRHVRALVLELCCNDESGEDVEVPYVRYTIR
Experimental: 2 μl rabbit E1 +12 μl of 1× reaction buffer are mixed together with the test compound followed by addition of 1 μl of ^32P Ub is added for 10 minutes at room temperature followed by resolution by SDS-PAGE under non-reducing conditions to maintain thiol-ester linkages and exposure as above.

GST-UbcH5B = molecular target: T3, GST-UbcH5B (Homo sapiens, UniProt P62837); experiment: E1+E2 assay with immobilized E2 (thiol-ester linkage with E2); format: biochemical; details: FIG. 2E
T3 construct: made in house
T3 sequence (P62837 whole entry): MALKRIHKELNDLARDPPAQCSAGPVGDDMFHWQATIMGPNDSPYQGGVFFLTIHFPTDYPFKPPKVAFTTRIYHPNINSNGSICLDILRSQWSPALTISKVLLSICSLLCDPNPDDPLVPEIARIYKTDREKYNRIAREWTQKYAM
Experimental: c. E1+E2 Assay with Immobilized E2
20 pmoles of bacterially-expressed GST-UbcH5B is bound to GS for 30 minutes at room temperature after washing in 50 mM Tris pH 7.5. Twenty (20) μl of 1× reaction buffer is added. After incubation with the test compound for 1 hour at 23° C. the beads were washed with 50 mM Tris pH 7.5. This was followed by addition of Rabbit E1/32P Ub cocktail (1 μl/1 μl) followed by incubation at 1 hour shaking at 23° C. This is followed by resolution by SDS-PAGE under non-reducing conditions and exposure as above.

With `O=c1nc2n(-c3cccc(Cl)c3)c3ccc([N+](=O)[O-])cc3cc-2c(=O)[nH]1` [Compound 98C07, 10-(-3-chloro-phenyl)-7-nitro-10H-pyrimido[4,5-b]quinoline-2,4-dione] the MDM2 level [1] was “specifically increase MDM2 and p53”, the p53 level [1] was “specifically increase MDM2 and p53” and the “inhibition of p53 ubiquitination by MDM2” value [2] was “significant dose-dependent inhibition of p53 ubiquitination”. For the same molecule, the “inhibition of thiol-ester linkage of ubiquitin with E1” value (rabbit E1) was “inhibits neither thiol-ester linkages of ubiquitin with E1 nor E2” and the “inhibition of thiol-ester linkage of ubiquitin with E2” value (GST-UbcH5B) was “inhibits neither thiol-ester linkages of ubiquitin with E1 nor E2”.
